Results published in patent US20240076297A1, “ADENOSINE A2A AND A2B RECEPTOR DUAL ANTAGONISTS FOR IMMUNO-ONCOLOGY” (Merck Sharp & Dohme LLC, priority 2020, published 2024).

Target: human A2A adenosine receptor (Homo sapiens (Human), UniProt P29274)
Test: A2A binding affinity using radioligand binding, Method (A)
Details: Method (A): filtration radioligand binding, [3H] SCH58261, membranes expressing human A2A
Description: Method (A) describes the procedure used to measure A2A binding affinity using radioligand binding. Method (B) describes the procedure used to measure A2A binding affinity using SPA technology. The method used to measure A2B binding affinity is also described below. The method used to determine the A2A IC50 value reported for each compound in the table is indicated next to the reported value. The A2B IC50 value measured using the A2B binding affinity assay is shown in the table next to the compound under the corresponding A2A value.
The A2A receptor affinity binding assay measured the amount of binding of a tritiated ligand with high affinity for the A2A adenosine receptor to membranes made from HEK293 or CHO cells recombinantly expressing the human A2A adenosine receptor, in the presence of varying concentrations of a compound of the invention. The data were generated using either filtration binding or a homogenous scintillation proximity assay (SPA).
Method (A): Measurement of A2A Binding Affinity Using Radioligand Binding
148 μL (5 μg/mL) membranes (Perkin Elmer, Cat. No. RBHA2aM400UA) and 2 μL compounds of the invention to be tested (test compound) were transferred to individual wells of a 96-well polypropylene assay plate and incubated for 15 to 30 min at room temperature. [^3H] SCH58261 ((7-(2-phenylethyl)-5-amino-2-(2-furyl)-pyrazolo-[4,3-e]-1,2,4-triazolo[1,5-c]pyrimidine)) was diluted in assay buffer (50 mM Tris pH 7.4, 10 mM MgCl2, 0.005% Tween20) to a concentration of 4 nM and 50 μL transferred to each well of the assay plate. To define total and non-specific binding, wells containing 1% DMSO and 1 μM ZM241385 (Tocris Bioscience, Cat. No. 1036) respectively, were also included. The assay plate was incubated at room temperature for 60 min with agitation. Using a FilterMate Harvester® (Perkin Elmer), the contents of the assay plate were filtered through a UniFilter-96® PEI coated plate (Perkin Elmer Cat. No. 6005274 or 6005277). Filtering was achieved by aspirating the contents of the assay plate for 5 sec, then washing and aspirating the contents three times with ice-cooled wash buffer (50 mM Tris-HCl pH 7.4, 150 mM NaCl) and allowing the vacuum manifold to dry the plate for 30 sec. The filter plate was incubated for at least 1 h at 55° C. and allowed to dry. The bottom of the filter plate was sealed with backing tape. 40 μL Ultima Gold™ (Perkin Elmer, Cat. No. 6013329) was added to each well of the filter plate and the top of the plate was sealed with TopSeal-A PLUS® clear plate seal (Perkin Elmer, Cat. No. 6050185). The plate was incubated for at least 20 min, and then the amount of radioactivity remaining in each well was determined using a TopCount® (Perkin Elmer) scintillation counter. After normalization to total and non-specific binding, the percent effect at each compound concentration was calculated. The plot of percent effect versus the log of compound concentration was analyzed electronically using a 4-parameter logistic fit based on the Levenberg-Marquardt algorithm to generate IC50 values.

human A2A adenosine receptor, sequence (P29274 whole entry): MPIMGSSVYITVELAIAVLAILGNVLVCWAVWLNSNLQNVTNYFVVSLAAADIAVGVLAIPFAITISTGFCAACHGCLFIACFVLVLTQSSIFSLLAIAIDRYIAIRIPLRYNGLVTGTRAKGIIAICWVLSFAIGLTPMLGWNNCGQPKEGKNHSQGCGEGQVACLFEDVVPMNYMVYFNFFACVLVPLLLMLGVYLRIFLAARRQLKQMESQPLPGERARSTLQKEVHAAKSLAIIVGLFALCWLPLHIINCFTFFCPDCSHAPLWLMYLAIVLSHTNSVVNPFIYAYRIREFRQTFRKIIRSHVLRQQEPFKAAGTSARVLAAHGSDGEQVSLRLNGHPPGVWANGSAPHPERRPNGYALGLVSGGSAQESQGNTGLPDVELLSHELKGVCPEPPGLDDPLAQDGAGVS

| SMILES | IC50 |
| --- | --- |
| CC(C)(N)c1ccc([C@H]2C[C@@H]2Cc2nc3c4cc(F)cc(F)c4nc(N)n3n2)cc1 [Example 8.3B, 2-(((1R,2S)-2-(4-(2-aminopropan-2-yl)phenyl)cyclopropyl)methyl)-7,9-difluoro-[1,2,4]triazolo[1,5-c]quinazolin-5-amine] | 25.4 nM |
| COc1cccc2c1nc(N)n1nc(CC3CC3c3ccc(C(C)(C)N)cc3)nc21 (single isomer, unassigned) [Example 8.5A, 2-(((1S,2R or 1R,2S)-2-(4-(2-aminopropan-2-yl)phenyl)-cyclopropyl)methyl)-7-methoxy-[1,2,4]triazolo-[1,5-c]quinazolin-5-amine] | 4.7 nM |
| CN=S(=O)(CCc1nc2c3cccc(OC)c3nc(N)n2n1)C1CC1 (single isomer, unassigned) [Example 10.3B, (R or S)-(2-(5-amino-7-methoxy-[1,2,4]triazolo[1,5-c]quinazolin-2-yl)ethyl)(cyclopropyl)(methylimino)-λ^6-sulfanone] | 3.7 nM |
| COc1cccc2c1nc(N)n1nc(COC3CCc4c(nnn4C4CC(F)(F)C4)C3)nc21 (single isomer, unassigned) [Example 2.2A, (S or R)-2-(((1-(3,3-difluorocyclobutyl)-4,5,6,7-tetrahydro-1H-benzo[d][1,2,3]triazol-5-yl)oxy)methyl)-7-methoxy-[1,2,4]triazolo[1,5-c]quinazolin-5-amine] | 3.4 nM |
| COc1ccc(C2=COCCC2)c2c1nc(N)n1nc(CO)nc21 [Example 15.4, (5-amino-10-(3,4-dihydro-2H-pyran-5-yl)-7-methoxy-[1,2,4]triazolo[1,5-c]quinazolin-2-yl)methanol] | 2.7 nM |
| CN=S(=O)(CCc1nc2c3cccc(OC)c3nc(N)n2n1)C1CC1 (single isomer, unassigned) [Example 10.3A, (S or R)-(2-(5-amino-7-methoxy-[1,2,4]triazolo[1,5-c]quinazolin-2-yl)ethyl)(cyclopropyl)(methylimino)-l6-sulfanone] | 1.4 nM |
| COc1cccc2c1nc(N)n1nc(CCS(=N)(=O)C3CC3)nc21 (single isomer, unassigned) [Example 11.1B, (R or S)-(2-(5-amino-7-methoxy-[1,2,4]triazolo[1,5-c]quinazolin-2-yl)ethyl)(cyclopropyl)(imino)-λ^6-sulfanone] | 3.4 nM |
| COc1cccc2c1nc(N)n1nc(CCS(=O)(=O)C3CC3)nc21 [Example 13.3, 2-(2-(cyclopropylsulfonyl)ethyl)-7-methoxy-[1,2,4]triazolo[1,5-c]quinazolin-5-amine] | 1.6 nM |
| Nc1nc2c(F)cc(F)cc2c2nc(CCCS(=O)(=O)C3CC3)nn12 [Example 13.20, 2-(3-(cyclopropylsulfonyl)propyl)-7,9-difluoro-[1,2,4]triazolo[1,5-c]quinazolin-5-amine] | 34.2 nM |
| COc1cccc2c1nc(N)n1nc(CCC3CCc4c(cnn4C(C)C)C3)nc21 (single isomer, unassigned) [Example 7.8B, (R or S)-2-(2-(1-isopropyl-4,5,6,7-tetrahydro-1H-indazol-5-yl)ethyl)-7-methoxy-[1,2,4]triazolo[1,5-c]quinazolin-5-amine] | 2.4 nM |
| COc1cccc2c1nc(N)n1nc(COC3CCc4c(nnn4C4CC(F)(F)C4)C3)nc21 (single isomer, unassigned) [Example 2.2B, (R or S)-2-(((1-(3,3-difluorocyclobutyl)-4,5,6,7-tetrahydro-1H-benzo[d][1,2,3]triazol-5-yl)oxy)methyl)-7-methoxy-[1,2,4]triazolo[1,5-c]quinazolin-5-amine] | 0.6 nM |
| COc1cc(F)cc2c1nc(N)n1nc(Cc3cnn(CCCC(C)(C)O)c3)nc21 [Example 16.4, 5-(4-((5-amino-9-fluoro-7-methoxy-[1,2,4]triazolo[1,5-c]quinazolin-2-yl)methyl)-1H-pyrazol-1-yl)-2-methylpentan-2-ol] | 15.3 nM |

More lines, now with the values ahead:

| IC50 | SMILES |
| --- | --- |
| 3.4 nM | COc1cc(F)cc2c1nc(N)n1nc(CCC3(O)CCc4c(nnn4C4CC(F)(F)C4)C3)nc21 (single isomer, unassigned) [Example 14.3B, (R or S)-5-(2-(5-amino-9-fluoro-7-methoxy-[1,2,4]triazolo[1,5-c]quinazolin-2-yl)ethyl)-1-(3,3-difluorocyclobutyl)-4,5,6,7-tetrahydro-1H-benzo[d][1,2,3]triazol-5-ol] |
| 2.2 nM | COc1cccc2c1nc(N)n1nc(CCC3CCn4c(cnc4C4CC(F)(F)C4)C3)nc21 (single isomer, unassigned) [Example 7.5A, (S or R)-2-(2-(3-(3,3-difluorocyclobutyl)-5,6,7,8-tetrahydroimidazo-[1,5-a]pyridin-7-yl)ethyl)-7-methoxy-[1,2,4]triazolo[1,5-c]-quinazolin-5-amine] |
| 0.5 nM | COc1cccc2c1nc(N)n1nc(CCC3CCn4c(cnc4C4CC(F)(F)C4)C3)nc21 (single isomer, unassigned) [Example 7.5B, (R or S)-2-(2-(3-(3,3-difluorocyclobutyl)-5,6,7,8-tetrahydroimidazo-[1,5-a]pyridin-7-yl)ethyl)-7-methoxy-[1,2,4]triazolo[1,5-c]-quinazolin-5-amine] |
| 1 nM | COc1cc(F)cc2c1nc(N)n1nc(CCC3CCc4c(nnn4C4CC(F)(F)C4)C3)nc21 (single isomer, unassigned) [Example 7.6A, (S or R)-2-(2-(1-(3,3-difluorocyclobutyl)-4,5,6,7-tetrahydro-1H-benzo[d][1,2,3]triazol-5-yl)ethyl)-9-fluoro-7-methoxy-[1,2,4]-triazolo[1,5-c]quinazolin-5-amine] |
| 4.6 nM | COc1cc(F)cc2c1nc(N)n1nc(CCC3CCn4c(cnc4C4CC(F)(F)C4)C3)nc21 (single isomer, unassigned) [Example 7.3B, (R or S)-2-(2-(3-(3,3-difluorocyclobutyl)-5,6,7,8-tetrahydroimidazo-[1,5-a]pyridin-7-yl)ethyl)-9-fluoro-7-methoxy-[1,2,4]triazolo[1,5-c]-quinazolin-5-amine] |
| 5.7 nM | COc1cc(F)cc2c1nc(N)n1nc(CCC3CCn4c(cnc4C4(C(F)(F)F)CC4)C3)nc21 (single isomer, unassigned) [Example 12.3A, (S or R)-9-fluoro-7-methoxy-2-(2-(3-(1-(trifluoromethyl)cyclopropyl)-5,6,7,8-tetrahydroimidazo[1,5-a]pyridin-7-yl)ethyl)-[1,2,4]triazolo[1,5-c]quinazolin-5-amine] |
